{"source": "patent US20130210907A1", "about": "“METHOD FOR PREVENTING OR TREATING ENTEROCHROMAFFIN CELL HYPERPLASIA-RELATED DISEASES BY QUERCETIN ADMINISTRATION” (HONG KONG BAPTIST UNIVERSITY, priority 2012, published 2013)", "key": {"QGP-1 cells": {"tested_on": "QGP-1 cells", "experiment": "Cell cycle analysis by flow cytometry (propidium iodide)", "format": "cell-based, human", "conditions": "24 h", "method": "QGP-1 cells are seeded at a density of 10×10^4 cells/ml and pre-incubated overnight. After incubation with or without Quercetin (0-100 μM) for 24 h, cells are harvested by trypsinization and fixed in 70% ethanol at 4° C. overnight. The cells are centrifuged to remove ethanol and washed twice using ice-cold PBS. The cell pallets are resuspended in 500 n1 propidium iodide solution (0.1% Triton X-100, 50 μg/ml propidium iodide in PBS) containing 50 μg/ml RNase and incubated at 37° C. for 30 min and protected from the light. The DNA content of 10,000 cells is detected by BD FASCanto Flow Cytometry and analyzed using […] software (Becton Dickinson, Heidelberg, Germany). The data are representative of those obtained in at least three experiments."}, "normal rats": {"tested_on": "normal rats", "experiment": "Pain threshold pressure in normal rats", "format": "in vivo, rat", "conditions": "10 mg/kg i.g., 14 days", "method": "AWR test is performed as previously described in Al-Chaer E D, Kawasaki M, Pasricha P J. A new model of chronic visceral hypersensitivity in adult rats induced by colon irritation during postnatal development. Gastroenterology. 2000 November; 119(5):1276-85. Briefly, rats are lightly anesthetized with ether; a latex balloon is inserted into the descending colon. Rats are then allowed to recover for about 1 h. The tube of the balloon is connected via a Y-connector to a sphygmomanometer and colorectal distension is applied in increments of 5 mmHg until a visible contraction of the abdominal wall is observed by an investigator blinded to the treatment. […] The pain threshold pressure of all groups is recorded and repeated five times with intervals of at least 5 minutes for recovery. […] The changes of area under the curve (AUC) are calculated using that during 20 s distension period over the 20 s baseline.\nTo identify whether the effects of Quercerin in PI-IBS rats are specific, pain threshold pressure, colonic EC cell number and 5-HT content are further evaluated in normal rats treated with Quercetin. […] After the final drug administration, pain threshold pressure, colonic EC cell density and 5-HT content are evaluated and the methods used here are as same as that shown in above experiments."}, "PI-IBS rats [1]": {"tested_on": "PI-IBS rats", "experiment": "Electron microscopy of EC cell secretory granules after CRD", "format": "in vivo, rat", "conditions": "median dose", "method": "For electron microscopy evaluation, the colon tissues are collected from the rats treated with AWR test so as to investigate the feature of mechanical stimulus-induced 5-HT release. Colon segment is fixed for 24 h at 4° C. in fixative containing 4% paraformaldehyde and 0.2% picric acid in 0.1M PB, then washed and embedded in gelatin. Thin sections are cut and picked up on 200-mesh grids. The sections are stained with uranyl acetate and lead citrate. Examination and photography of sections are carried out using Philips CM 10 transmission electron microscope (Philips Scientifics, Netherlands). At the ultra-structural level, EC cell are distinguished from other enteroendocrine cells by the pleomorphic nature of their secretory granules. The EC cells in which there are many clear secretory granules without cores and granules with eccentric cores are considered as the activated one with excessive 5-HT release."}, "PI-IBS rats [2]": {"tested_on": "PI-IBS rats", "experiment": "EMG recording: visceral motor response to graded colorectal distension (CRD)", "format": "in vivo, rat", "method": "(§1) Sprague-Dawley male rats (Laboratory Animal Services Centre, The Chinese University of Hong Kong) aged 6 weeks with body weight around 220 g are used to develop PI-IBS model. Briefly, rats are fasted for 24 h, and deeply anesthetized with chloral hydrate (350 mg.kg^−1, i.p.). After induction of colitis by 2,4,6-trinitrobenzenesulfonic acid solution (TNBS, 5 mg/0.8 ml/rat, in 50% ethanol, 8 cm from anus) administration, the rats are allowed to recover for at least 4 weeks before use. The control rats are similarly administered with 0.8 ml saline instead of TNBS. Only the rats that have completely recovered from the initial inflammation and acquired visceral hypersensitivity are used as the PI-IBS rats.\n(§2) 6 groups of 12 rats are tested. Normal rats (Group 1) are treated with water. PI-IBS rats are randomly divided into 5 groups and orally treated with water (Group 2), Doxantrazole (mast cell stabilizer, 30 mg/kg/d, Group 3), and Quercetin (Group 4-6) at the dose of 5, 10, and 20 mg/kg/d, respectively. After 2 weeks daily drug administration, 5 rats in each group are used to measure pain threshold pressure by abdominal withdrawal reflex (AWR) test, and the remaining […] is used for electromyography (EMG) recording.\n(§3) AWR test is performed as previously described in Al-Chaer E D, Kawasaki M, Pasricha P J. A new model of chronic visceral hypersensitivity in adult rats induced by colon irritation during postnatal development. Gastroenterology. 2000 November; 119(5):1276-85. Briefly, rats are lightly anesthetized with ether; a latex balloon is inserted into the descending colon. Rats are then allowed to recover for about 1 h. The tube of the balloon is connected via a Y-connector to a sphygmomanometer and colorectal distension is applied in increments of 5 mmHg until a visible contraction of the abdominal wall is observed by an investigator blinded to the treatment. The pain threshold pressure is defined as the intensity of colorectal distension (CRD) that elicited an observable AWR, i.e. a sudden and persistent abdominal muscle contraction with abdomen lift off the platform. The pain threshold pressure of all groups is recorded and repeated five times with intervals of at least 5 minutes for recovery. EMG recording are conducted as previously described in Tammpere A, Brusberg M, Axenborg J, Hirsch I, Larsson H, Lindstrom E. Evaluation of pseudo-affective responses to noxious colorectal distension in rats by manometric recordings. Pain. 2005 August; 116(3):220-6 and Li Z, Zhang X J, Xu H X, Sung J J, Bian Z X. Intracolonical administration of protease-activated receptor-2 agonists produced visceral hyperalgesia by up-regulating serotonin in the colon of rats. Eur J. Pharmacol. 2009 Mar. 15; 606(1-3):199-204. Firstly, a surgical operation is made to implant the electrodes into the left external abdominal oblique muscles 7 days before EMG recording. After the last drug administration, a flexible latex balloon is inserted into the rat descending colon, and the rats are allowed to accommodate for 1 h. CRD is initiated, and the EMG signal is amplified and filtered by Power Lab System. Graded colorectal distension (20, 40, 60, and 80 mmHg; 20 s duration; 2 min inter-stimulus interval) is carried out for total three cycles to each rat. The changes of area under the curve (AUC) are calculated using that during 20 s distension period over the 20 s baseline."}, "PI-IBS rats [3]": {"tested_on": "PI-IBS rats", "experiment": "Abdominal withdrawal reflex (AWR) test: pain threshold pressure to colorectal distension", "format": "in vivo, rat", "conditions": "for Pain threshold pressure, after treatment: 2 weeks", "method": "as §1, §2, §3"}}, "data": [{"smiles": "O=c1c(O)c(-c2ccc(O)c(O)c2)oc2cc(O)cc(O)c12", "note": "[Quercetin, 2-(3,4-dihydroxyphenyl)-3,5,7-trihydroxy-4H-chromen-4-one]", "values": [{"measurement": "Cells in G0/G1 phase", "setting": "QGP-1 cells; QGP-1, 25 μM", "value": "56.0 ± 3.5", "unit": "%"}, {"measurement": "Cells in G2/M phase", "setting": "QGP-1 cells; QGP-1, 25 μM", "value": "21.8 ± 3.2", "unit": "%"}, {"measurement": "Cells in S phase", "setting": "QGP-1 cells; QGP-1, 25 μM", "value": "22.3 ± 0.3", "unit": "%"}, {"measurement": "Cells in G0/G1 phase", "setting": "QGP-1 cells; QGP-1, 50 μM", "value": "47.8 ± 4.0", "unit": "%"}, {"measurement": "Cells in G2/M phase", "setting": "QGP-1 cells; QGP-1, 50 μM", "value": "20.2 ± 4.29", "unit": "%"}, {"measurement": "Cells in S phase", "setting": "QGP-1 cells; QGP-1, 50 μM", "value": "32.0 ± 0.4", "unit": "%"}, {"measurement": "Cells in G0/G1 phase", "setting": "QGP-1 cells; QGP-1, 100 μM", "value": "8.4 ± 1.7", "unit": "%"}, {"measurement": "Cells in G2/M phase", "setting": "QGP-1 cells; QGP-1, 100 μM", "value": "47.7 ± 2.2", "unit": "%"}, {"measurement": "Cells in S phase", "setting": "QGP-1 cells; QGP-1, 100 μM", "value": "43.9 ± 0.7", "unit": "%"}, {"measurement": "Pain threshold pressure", "setting": "normal rats", "value": "37.9 ± 1.7", "unit": "mmHg"}, {"measurement": "Secretory granules of EC cells compared to PI-IBS rats (electron micrographs)", "setting": "PI-IBS rats [1]", "value": "became denser"}, {"measurement": "AUC value under graded distension pressures (EMG)", "setting": "PI-IBS rats [2]; 5 mg/kg i.g., 20 mmHg", "value": "161.22 ± 41.53"}, {"measurement": "AUC value under graded distension pressures (EMG)", "setting": "PI-IBS rats [2]; 5 mg/kg i.g., 40 mmHg", "value": "463.55 ± 12.42"}, {"measurement": "AUC value under graded distension pressures (EMG)", "setting": "PI-IBS rats [2]; 5 mg/kg i.g., 60 mmHg", "value": "586.42 ± 56.68"}, {"measurement": "AUC value under graded distension pressures (EMG)", "setting": "PI-IBS rats [2]; 5 mg/kg i.g., 80 mmHg", "value": "906.84 ± 41.08"}, {"measurement": "AUC value under graded distension pressures (EMG)", "setting": "PI-IBS rats [2]; 10 mg/kg i.g., 20 mmHg", "value": "124.61 ± 67.68"}, {"measurement": "AUC value under graded distension pressures (EMG)", "setting": "PI-IBS rats [2]; 10 mg/kg i.g., 40 mmHg", "value": "386.85 ± 65.68"}, {"measurement": "AUC value under graded distension pressures (EMG)", "setting": "PI-IBS rats [2]; 10 mg/kg i.g., 60 mmHg", "value": "530.98 ± 21.08"}, {"measurement": "AUC value under graded distension pressures (EMG)", "setting": "PI-IBS rats [2]; 10 mg/kg i.g., 80 mmHg", "value": "842.34 ± 62.92"}, {"measurement": "AUC value under graded distension pressures (EMG)", "setting": "PI-IBS rats [2]; 20 mg/kg i.g., 20 mmHg", "value": "88.28 ± 43.43"}, {"measurement": "AUC value under graded distension pressures (EMG)", "setting": "PI-IBS rats [2]; 20 mg/kg i.g., 40 mmHg", "value": "319.78 ± 118.03"}, {"measurement": "AUC value under graded distension pressures (EMG)", "setting": "PI-IBS rats [2]; 20 mg/kg i.g., 60 mmHg", "value": "470.73 ± 173.52"}, {"measurement": "AUC value under graded distension pressures (EMG)", "setting": "PI-IBS rats [2]; 20 mg/kg i.g., 80 mmHg", "value": "725.28 ± 192.44"}, {"measurement": "Pain threshold pressure, after treatment", "setting": "PI-IBS rats [3]; 5 mg/kg i.g. daily", "value": "32 ± 1.9", "unit": "mmHg"}, {"measurement": "Pain threshold pressure, before treatment", "setting": "PI-IBS rats [3]; 5 mg/kg i.g. group", "value": "25 ± 1.9", "unit": "mmHg"}, {"measurement": "Pain threshold pressure, after treatment", "setting": "PI-IBS rats [3]; 10 mg/kg i.g. daily", "value": "33 ± 1.8", "unit": "mmHg"}, {"measurement": "Pain threshold pressure, before treatment", "setting": "PI-IBS rats [3]; 10 mg/kg i.g. group", "value": "25 ± 1.1", "unit": "mmHg"}, {"measurement": "Pain threshold pressure, after treatment", "setting": "PI-IBS rats [3]; 20 mg/kg i.g. daily", "value": "35 ± 1.3", "unit": "mmHg"}, {"measurement": "Pain threshold pressure, before treatment", "setting": "PI-IBS rats [3]; 20 mg/kg i.g. group", "value": "24 ± 1.1", "unit": "mmHg"}]}]}
